A short description of this series: Exposed Polar Surface Area (EPSA). The series is classed as physicochemical. The following applies: SFC on Chirex 3014 column; sample 1 mM DMSO stock; read-out: EPSA. From the text: Exposed Polar Surface Area (EPSA) is an experimental descriptor of molecular polarity obtained from chromatographic retention in supercritical fluid chromatography (SFC).
The stationary phase (Chirex 3014(S)-valine and (R)-1-(alpha-naphthyl) ethylamine) was selected for its balance of lipophilic and polar attributes and its capacity to separate compounds with wide polarity differences. The mobile phase consists of methanol (+Ammonium formate) and CO2. Polar compounds are retained stronger under these conditions and a low-slope gradient of methanol achieves elution based on increasing polarity of the mobile phase. Results are normalized using calibration standards generating a linear relationship between retention times and EPSA values. The unit of EPSA is Å^2.
Along with the measurement of compounds of interest, a series of 8 calibration standards (see Materials) are analyzed generating a linear relationship between retention times and EPSA value. The 8 compounds used as calibration standard have their own EPSA value defined by G. Goetz based on the comparison with TPSA (see G. Goetz, L. Philippe and M. Shapiro, “EPSA: A novel supercritical fluid chromatography technique enabling the design of permeable cyclic peptides,” ACS Med. Chem. Lett., vol. 5, pp. 1167-1172, 2014 for more information). The slope from the linear relationship between EPSA values of these eight compounds and their retention times is used to determine the EPSA value of each compound of interest that's measured under the same condition using the equation as below: […]
The mixture of calibrations standard is reinjected every 20 compounds to validate the stability of the retention time.
The mobile phase modifier consists of ammonium formate LC_MS grade (>99%) (CAS number 540-69-2) diluted to 20 mM in HPLC grade Methanol (MeOH, CAS number 67-56-1) and liquid C02 SFC grade (CAS number 124-38-9).
Antipyrine (CAS number: 60-80-0) Chlorpromazine hydrochloride (CAS number: 69-09-0), desipramine hydrochloride (CAS number: […]), pindolol (CAS Number: 13523-86-9), diclofenac (CAS number: 15307-79-6)), m-nitro benzoic acid (CAS number: 121-92-6), bumetanide (CAS number: 28395-03-1), furosemide (CAS number: 54-31-9) were purchased from Sigma Aldrich (Steihneim, Germany).
All analyses were performed on a ultra performance convergence chromatography (UPC™) apparatus (Waters, Milford, MA, USA) equipped with a sample manager, a binary solvent delivery pump (BSM), a column manager, a convergence manager (automated back pressure regulator), a photo diode array detector (DAD) with a high pressure flow cell, and a mass detector simple quadrupole QDa. After the UV detector, the effluent of the SFC was mixed with an eluent consist of mixture MeOH/water (+0.3% Ammonia) 95/5 delivered by a make up pump with a flow rate of 0.4 mL/min and then split to the QDa using a splitter. The instrument was controlled, and data were processed with Masslynx 4.1.
The Analyses were performed using a 4.6×50 mm Chirex 3014(S)-valine and (R)-1-(alpha- naphthyl) ethylamine column (Phenomenex, Le Pecq, France) with 5 um particle and 100A pore size. The flow rate was 4 mL/min with the outlet pressure set to 14 MPa. The injection volume was 2 μL. the mobile phase composition was varied from 5% to 60% modifier at 20%/ min in a linear gradient, holding at 60% for 1.45 min and reverting to the original 5% until the end of the run. Data are acquired during 5 min. An equilibration time of 1 min is applied between 2 injections resulting in an injection every 6 min. each sample is analyzed in duplicate, resulting in a sample to sample turnaround time of 12 min.
The column temperature was set to 35° C. The mass detector was used in full scan from 100 to 800 for small molecules and from 500 to 1200 for peptides.
Each sample is delivered by compound logistics from DMSO stock solution without dilution. The concentration is 1 mM and the volume is 60 μL.
Consider `CC(=O)NCCCC[C@@H]1NC(=O)[C@H](Cc2c[nH]c3c(C)cccc23)NC(=O)[C@H]([C@@H](C)O)NC(=O)[C@H](CC(N)=O)NC(=O)[C@@H](NC(C)=O)C(C)(C)SSC(C)(C)[C@@H](C(=O)N[C@@H](Cc2ccc(OCCN)cc2)C(=O)N[C@@H](Cc2ccc3ccccc3c2)C(=O)N[C@@](C)(CCCCN)C(=O)N[C@H](CCCCNC(C)=O)C(=O)N[C@@H](CC(N)=O)C(=O)N[C@H](CC(C)C)C(=O)N(C)[C@H](Cc2ccc(O)cc2)C(N)=O)NC1=O` (racemic) [compound 6, MeCO-Pen(3)-N-T-7MeW-K(Ac)-Pen(3)-AEF-2Nal-aMeK-k(Ac)-N-dL-NMeDTyr-CONH2], for which the EPSA was 170 A^2. On to `CC(=O)NCCCC[C@@H]1NC(=O)[C@H](Cc2c[nH]c3c(C)cccc23)NC(=O)[C@H]([C@@H](C)O)NC(=O)[C@H](CC(N)=O)NC(=O)[C@@H](NC(=O)C(COCCOCC[N+](C)(C)C)NC(C)=O)C(C)(C)SSC(C)(C)[C@@H](C(=O)N[C@@H](Cc2ccc(OCCCCC[N+](C)(C)C)cc2)C(=O)N[C@@H](Cc2ccc3ccccc3c2)C(=O)NC2(C(=O)N[C@@H](CCC(=O)O)C(=O)N[C@@H](CC(N)=O)C(=O)N[C@@H](Cc3cccnc3)C(=O)N(C)CC(N)=O)CCOCC2)NC1=O` (mixture of isomers) [compound 555, MeCO-APEG2Ser(RS)-Pen(3)-N-T-7MeW-K(Ac)-Pen(3)-TMAPF-2Nal-THP-E-N-3Pya-Sar-CONH2], for which the EPSA was found to be 171 A^2. For the compound `CC(=O)N(C)CCCC[C@H](NC(=O)C1(NC(=O)[C@H](Cc2ccc3ccccc3c2)NC(=O)[C@H](Cc2ccc(OCCCCC[N+](C)(C)C)cc2)NC(=O)[C@H]2NC(=O)[C@H](COCCOCC[N+](C)(C)C)NC(=O)[C@H](Cc3c[nH]c4c(C)cccc34)NC(=O)[C@H]([C@@H](C)O)NC(=O)[C@H](CC(=O)N(C)C)NC(=O)[C@@H](NC(=O)CCOCCOCC[N+](C)(C)C)C(C)(C)SSC2(C)C)CCOCC1)C(=O)N[C@@H](CC(N)=O)C(=O)N[C@@H](Cc1cccnc1)C(=O)N(C)CC(=O)N(C)C` (relative stereo) [compound 247, cPEG3aCO-Pen(3)-N(N(Me)2)-T-7MeW-APEG2Ser(S*)-Pen(3)-TMAPF-2Nal-THP-K(NMeAc)-N-3Pya-Sar-CON(Me)2], the EPSA came to 145 A^2.

Consider `CC(=O)N[C@@H]1C(=O)N[C@@H](CC(=O)N(C)C)C(=O)N[C@@H]([C@@H](C)O)C(=O)N[C@@H](Cc2c[nH]c3c(C)cccc23)C(=O)N[C@@H](COCCOCC[N+](C)(C)C)C(=O)N[C@H](C(=O)N[C@@H](Cc2ccc(OCCOCCOCC[N+](C)(C)C)cc2)C(=O)N[C@@H](Cc2ccc3ccccc3c2)C(=O)NC2(C(=O)N[C@@H](COCCOCC[N+](C)(C)C)C(=O)N[C@@H](CC(N)=O)C(=O)N[C@@H](Cc3cccnc3)C(=O)N(C)CC(=O)N(C)C)CCOCC2)C(C)(C)SSC1(C)C` (relative stereo) [compound 256, MeCO-Pen(3)-N(N(Me)2)-T-7MeW-APEG2Ser(S*)-Pen(3)-APEG3F-2Nal-THP-APEG2Ser(S*)-N-3Pya-Sar-CON(Me)2], for which the EPSA is 142 A^2. Next, `CC(=O)N(C)CCCC[C@@H]1NC(=O)[C@H](Cc2c[nH]c3c(C)cccc23)NC(=O)[C@H]([C@@H](C)O)NC(=O)[C@H](CC(=O)N(C)C)NC(=O)[C@@H](NC(=O)CCOCCOCC[N+](C)(C)C)C(C)(C)SSC(C)(C)[C@@H](C(=O)N[C@@H](Cc2ccc(OCCN(CCOCC[N+](C)(C)C)CCOCC[N+](C)(C)C)cc2)C(=O)N[C@@H](Cc2ccc3ccccc3c2)C(=O)NC2(C(=O)N[C@@H](CCCCN(C)C(C)=O)C(=O)N[C@@H](CC(N)=O)C(=O)N[C@@H](Cc3cccnc3)C(=O)N(C)CC(=O)N(C)C)CCOCC2)NC1=O` (relative stereo) [compound 266, cPEG3aCO-Pen(3)-N(N(Me)2)-T-7MeW-K(NMeAc)-Pen(3)-AEF(BisPEG2a)(S*)-2Nal-THP-K(NMeAc)-N-3Pya-Sar-CON(Me)2]: 157 A^2; `CCCCCCCCCCCC(=O)N[C@@H](CCC(=O)NCCOCCOCC(=O)NCCOCCOCC(=O)NC(COCCOCC[N+](C)(C)C)C(=O)N[C@@H]1C(=O)N[C@@H](CC(=O)N(C)C)C(=O)N[C@@H]([C@@H](C)O)C(=O)N[C@@H](Cc2c[nH]c3c(C)cccc23)C(=O)N[C@@H](CCCCN(C)C(C)=O)C(=O)N[C@H](C(=O)N[C@@H](Cc2ccc(OCCOCCOCC[N+](C)(C)C)cc2)C(=O)N[C@@H](Cc2ccc3ccccc3c2)C(=O)NC2(C(=O)N[C@@H](CCCCN(C)C(C)=O)C(=O)N[C@@H](CC(N)=O)C(=O)N[C@@H](Cc3cccnc3)C(=O)N(C)CC(=O)N(C)C)CCOCC2)C(C)(C)SSC1(C)C)C(=O)O` (relative stereo) [compound 366, C12gEPEG2PEG2CO-APEG2Ser(S*)-Pen(3)-N(N(Me)2)-T-7MeW-K(NMeAc)-Pen(3)-APEG3F-2Nal-THP-K(NMeAc)-N-3Pya-Sar-CON(Me)2]: 162 A^2; `CCCCCCCCCCCCCC(=O)N[C@@H](CCC(=O)NCCOCCOCC(=O)NCCOCCOCC(=O)N[C@@H](COCCOCC[N+](C)(C)C)C(=O)N[C@@H]1C(=O)N[C@@H](CC(=O)N(C)C)C(=O)N[C@@H]([C@@H](C)O)C(=O)N[C@@H](Cc2c[nH]c3c(C)cccc23)C(=O)N[C@@H](CCCCN(C)C(C)=O)C(=O)N[C@H](C(=O)N[C@@H](Cc2ccc(OCCOCCOCC[N+](C)(C)C)cc2)C(=O)N[C@@H](Cc2ccc3ccccc3c2)C(=O)NC2(C(=O)N[C@@H](CCCCN(C)C(C)=O)C(=O)N[C@@H](CC(N)=O)C(=O)N[C@@H](Cc3cccnc3)C(=O)N(C)CC(=O)N(C)C)CCOCC2)C(C)(C)SSC1(C)C)C(=O)O` (relative stereo) [compound 367, C14gEPEG2PEG2CO-APEG2Ser(S*)-Pen(3)-N(N(Me)2)-T-7MeW-K(NMeAc)-Pen(3)-APEG3F-2Nal-THP-K(NMeAc)-N-3Pya-Sar-CON(Me)2]: 162 A^2. As to `CCCCCCCCCCCC(=O)N[C@@H](CCC(=O)NCCOCCOCC(=O)NCCOCCOCC(=O)NCCCC[C@@H]1NC(=O)[C@H](Cc2c[nH]c3c(C)cccc23)NC(=O)[C@H]([C@@H](C)O)NC(=O)[C@H](CC(=O)N(C)C)NC(=O)[C@@H](NC(=O)C(COCCOCC[N+](C)(C)C)NC(=O)COCCOCCNC(=O)COCCOCCNC(=O)CC[C@H](NC(=O)CCCCCCCCCCC)C(=O)O)C(C)(C)SSC(C)(C)[C@@H](C(=O)N[C@@H](Cc2ccc(OCCOCCOCC[N+](C)(C)C)cc2)C(=O)N[C@@H](Cc2ccc3ccccc3c2)C(=O)NC2(C(=O)N[C@@H](CCCCN(C)C(C)=O)C(=O)N[C@@H](CC(N)=O)C(=O)N[C@@H](Cc3cccnc3)C(=O)N(C)CC(=O)N(C)C)CCOCC2)NC1=O)C(=O)O` (relative stereo) [compound 368, C12gEPEG2PEG2CO-APEG2Ser(S*)-Pen(3)-N(N(Me)2)-T-7MeW-K(PEG2PEG2gEC12)-Pen(3)-APEG3F-2Nal-THP-K(NMeAc)-N-3Pya-Sar-CON(Me)2], the EPSA is 166 A^2. For `CCCCCCCCCCCCCC(=O)N[C@@H](CCC(=O)NCCOCCOCC(=O)NCCOCCOCC(=O)NCCCC[C@@H]1NC(=O)[C@H](Cc2c[nH]c3c(C)cccc23)NC(=O)[C@H]([C@@H](C)O)NC(=O)[C@H](CC(=O)N(C)C)NC(=O)[C@@H](NC(=O)[C@H](COCCOCC[N+](C)(C)C)NC(=O)COCCOCCNC(=O)COCCOCCNC(=O)CC[C@H](NC(=O)CCCCCCCCCCCCC)C(=O)O)C(C)(C)SSC(C)(C)[C@@H](C(=O)N[C@@H](Cc2ccc(OCCOCCOCC[N+](C)(C)C)cc2)C(=O)N[C@@H](Cc2ccc3ccccc3c2)C(=O)NC2(C(=O)N[C@@H](CCCCN(C)C(C)=O)C(=O)N[C@@H](CC(N)=O)C(=O)N[C@@H](Cc3cccnc3)C(=O)N(C)CC(=O)N(C)C)CCOCC2)NC1=O)C(=O)O` (relative stereo) [compound 369, C14gEPEG2PEG2CO-APEG2Ser(S*)-Pen(3)-N(N(Me)2)-T-7MeW-K(PEG2PEG2gEC14)-Pen(3)-APEG3F-2Nal-THP-K(NMeAc)-N-3Pya-Sar-CON(Me)2], the EPSA was determined as 184 A^2.

The record behind these values is US20260022143A1, “Cyclic Peptide Inhibitors of IL-23” (JANSSEN PHARMACEUTICA NV, priority 2022, published 2026).
